Patent US8741875B2, “Compounds as receptor modulators with therapeutic utility” (Allergan, Inc., priority 2009, dated 2014)

The compounds below were run against T1, human S1P1 receptor (Homo sapiens, UniProt P21453) (assay: GTP γ35S binding assay for S1P1 activity). Conditions: membranes, 30 min at 25° C., read-out: S1P1 EC50 (Activity potency: S1P1 receptor from GTP γ35S).
T1 construct: expressed in transfected cells; membranes used
Type: biochemical
Protocol: Compounds were tested for S1P1 activity using the GTP γ^35S binding assay. These compounds may be assessed for their ability to activate or block activation of the human S1P1 receptor in cells stably expressing the S1P1 receptor.
GTP γ^35S binding was measured in the medium containing (mM) HEPES 25, pH 7.4, MgCl2 10, NaCl 100, dithitothreitol 0.5, digitonin 0.003%, 0.2 nM GTP γ^35S, and 5 μg membrane protein in a volume of 150 μl. Test compounds were included in the concentration range from 0.08 to 5,000 nM unless indicated otherwise. Membranes were incubated with 100 μM 5′-adenylylimmidodiphosphate for 30 min, and subsequently with 10 μM GDP for 10 min on ice. Drug solutions and membrane were mixed, and then reactions were initiated by adding GTP γ^35S and continued for 30 min at 25° C. Reaction mixtures were filtered over Whatman GF/B filters under vacuum, and washed three times with 3 mL of ice-cold buffer (HEPES 25, pH7.4, MgCl2 10 and NaCl 100). Filters were dried and mixed with scintillant, and counted for ^35S activity using a β-counter. Agonist-induced GTP γ^35S binding was obtained by subtracting that in the absence of agonist. Binding data were analyzed using a non-linear regression method. In case of antagonist assay, the reaction mixture contained 10 nM S1P in the presence of test antagonist at concentrations ranging from 0.08 to 5000 nM.

T1 sequence (P21453 whole entry): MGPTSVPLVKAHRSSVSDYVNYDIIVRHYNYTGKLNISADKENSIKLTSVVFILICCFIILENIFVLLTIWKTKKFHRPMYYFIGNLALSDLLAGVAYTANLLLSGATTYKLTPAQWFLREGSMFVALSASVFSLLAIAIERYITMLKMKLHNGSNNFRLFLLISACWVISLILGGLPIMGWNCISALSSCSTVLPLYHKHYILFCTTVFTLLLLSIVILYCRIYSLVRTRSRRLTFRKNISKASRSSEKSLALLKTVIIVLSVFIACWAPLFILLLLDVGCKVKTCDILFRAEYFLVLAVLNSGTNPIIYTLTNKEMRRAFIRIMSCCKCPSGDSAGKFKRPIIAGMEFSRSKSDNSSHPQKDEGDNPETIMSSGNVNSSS

| EC50 [nM] | Compound |
| --- | --- |
| 1.3 | O=P(O)(O)CCCNCc1ccc(OCCCCCc2ccccc2)c(-c2cccs2)c1 [Compound 6, [3-({4-[(5-phenylpentyl)oxy]-3-(2-thienyl)benzyl}amino)propyl]phosphonic acid] |
| 0.98 | O=P(O)(O)CCCNCc1ccc(OCCCCCc2ccc(F)cc2)c(-c2ccco2)c1 [Compound 24, (3-{[4-{[5-(4-fluorophenyl)pentyl]oxy}-3-(2-furyl)benzyl]amino}propyl)phosphonic acid] |
| 23 | CP(=O)(O)CCCNCc1ccc(OCCCCCc2ccccc2)c(-c2cccs2)c1 [Compound 11, methyl[3-({4-[(5-phenylpentyl)oxy]-3-(2-thienyl)benzyl}amino)propyl]phosphinic acid] |
| 8 | O=P(O)(O)CCCNCc1ccc(OCCCCCc2ccc(Cl)cc2)c(-c2cccs2)c1 [Compound 30, (3-{[4-{[5-(4-chlorophenyl)pentyl]oxy}-3-(2-thienyl)benzyl]amino}propyl)phosphonic acid] |
| 517 | CCCCCCCCCOc1ccc(CNCCCP(=O)(O)O)cc1-c1cccs1 [Compound 16, (3-{[4-(nonyloxy)-3-(2-thienyl)benzyl]amino}propyl)phosphonic acid] |
| 241 | CC(CO)NCc1ccc(OCCCCCc2ccccc2)c(-c2cccs2)c1 (centres unmarked) [Compound 12, 2-({4-[(5-phenylpentyl)oxy]-3-(2-thienyl)benzyl}amino)propan-1-ol] |
| 714 | OCC(CO)NCc1ccc(OCCCCCc2ccccc2)c(-c2cccs2)c1 [Compound 13, 2-({4-[(5-phenylpentyl)oxy]-3-(2-thienyl)benzyl}amino)propane-1,3-diol] |
| 1.9 | O=P(O)(O)CCCNCc1ccc(OCCCCCc2ccccc2)c(-c2ccc(F)o2)c1 [Compound 38, [3-({3-(5-fluoro-2-furyl)-4-[(5-phenylpentyl)oxy]benzyl}amino)propyl]phosphonic acid] |
| 15.6 | O=P(O)(O)CCCNCc1ccc(NCCCCCc2ccccc2)c(-c2ncco2)c1 [Compound 47, [3-({3-(1,3-oxazol-2-yl)-4-[(5-phenylpentyl)amino]benzyl}amino)propyl]phosphonic acid] |
| 0.6 | O=P(O)(O)CCCNCc1ccc(OCCCCCc2ccccc2)c(-c2ccoc2)c1 [Compound 4, [3-({3-(3-furyl)-4-[(5-phenylpentyl)oxy]benzyl}amino)propyl]phosphonic acid] |
| 8.4 | COc1ccc(CCCCCOc2ccc(CNCCCP(=O)(O)O)cc2-c2ccco2)cc1Cl [Compound 31, (3-{[4-{[5-(3-chloro-4-methoxyphenyl)pentyl]oxy}-3-(2-furyl)benzyl]amino}propyl)phosphonic acid] |
| 1.5 | O=P(O)(O)CCCNCc1ccc(NCCCCCc2ccccc2)c(-c2ccco2)c1 [Compound 46, [3-({3-(2-furyl)-4-[(5-phenylpentyl)amino]benzyl}amino)propyl]phosphonic acid] |
| 240 | COc1cccc(CCCCCOc2ccc(CNCCCP(=O)(O)O)cc2-c2ccco2)c1 [Compound 23, (3-{[3-(2-furyl)-4-{[5-(3-methoxyphenyl)pentyl]oxy}benzyl]amino}propyl)phosphonic acid] |
| 3.4 | O=P(O)(O)CCCNCc1ccc(OCCCCCc2ccccc2)c(-n2cccc2)c1 [Compound 44, [3-({4-[(5-phenylpentyl)oxy]-3-(1H-pyrrol-1-yl)benzyl}amino)propyl]phosphonic acid] |
| 3.3 | O=P(O)(O)CCCNCc1ccc(OCCCCCc2ccccc2)c(-c2ccsc2)c1 [Compound 5, [3-({4-[(5-phenylpentyl)oxy]-3-(3-thienyl)benzyl}amino)propyl]phosphonic acid] |
| 8.5 | O=P(O)(O)CCCNCc1ccc(OCCCCCc2ccccc2)c(-n2cccn2)c1 [Compound 43, [3-({4-[(5-phenylpentyl)oxy]-3-(1H-pyrazol-1-yl)benzyl}amino)propyl]phosphonic acid] |
| 7.1 | COc1ccc(CCCCCOc2ccc(CNCCCP(=O)(O)O)cc2-c2ccco2)cc1 [Compound 33, (3-{[3-(2-furyl)-4-{[5-(4-methoxyphenyl)pentyl]oxy}benzyl]amino}propyl)phosphonic acid] |
| 48.6 | COc1ccc(CCCCCOc2ccc(CNCCCP(=O)(O)O)cc2-c2cccs2)cc1 [Compound 20, (3-{[4-{[5-(4-methoxyphenyl)pentyl]oxy}-3-(2-thienyl)benzyl]amino}propyl)phosphonic acid] |
| 0.77 | O=P(O)(O)CCCNCc1ccc(OCCCCCc2ccccc2)c(-c2cccs2)n1 [Compound 15, {3-[({5-[(5-phenylpentyl)oxy]-6-(2-thienyl)pyridin-2-yl}methyl)amino]propyl}phosphonic acid] |
| 1 | O=P(O)(O)CCCNCc1cc(-c2ccco2)c(OCCCCCc2ccccc2)cc1F [Compound 51, [3-({2-fluoro-5-(2-furyl)-4-[(5-phenylpentyl)oxy]benzyl}amino)propyl]phosphonic acid] |

| Compound | EC50 [nM] |
| --- | --- |
| O=P(O)(O)CCCNCc1ccc(OCCCCc2ccc(F)cc2)c(-c2ccco2)c1 [Compound 26, [3-({4-[4-(4-fluorophenyl)butoxy]-3-(2-furyl)benzyl}amino)propyl]phosphonic acid] | 98.9 |

Each compound was assayed on blood lymphocytes (assay: Lymphopenia Assay in Mice (blood lymphocyte depletion)). Conditions: 10 mg/kg in mice (24, 48, 72 Hours), FIG. 1.
Type: in vivo, female C57BL6 mice
Protocol: A lymphopenia assay in mice; as previously described, was employed to measure the in vivo blood lymphocyte depletion after dosing with the test compound: [3-({4-[(5-phenylpentyl)oxy]-3-(2-thienyl)benzyl}amino)propyl]phosphonic acid Compound 6. This S1P1 modulator, [3-({4-[(5-phenylpentyl)oxy]-3-(2-thienyl)benzyl}amino)propyl]phosphonic acid Compound 6 is useful for S1P-related diseases and exemplified by the lymphopenia in vivo response.
Test drugs, were prepared in a solution containing 3% (w/v) 2-hydroxy propyl β-cyclodextrin (HPBCD) and 1% DMSO to a final concentration of 1 mg/ml, and subcutaneously injected to female C57BL6 mice (CHARLES RIVERS) weighing 20-25 g at the dose of 10 mg/Kg. Blood samples were obtained by puncturing the submandibular skin with a Goldenrod animal lancet at different time intervals such as: 24, 48, 72 (and 96 h) post drug application. Blood was collected into microvettes (SARSTEDT) containing EDTA tripotassium salt. Lymphocytes in blood samples were counted using a HEMAVET Multispecies Hematology System, HEMAVET HV950FS (Drew Scientific Inc.). (Hale, J. et al Bioorg. & Med. Chem. Lett. 14 (2004) 3351

| Compound | Lymphopenia |
| --- | --- |
| O=P(O)(O)CCCNCc1ccc(OCCCCCc2ccccc2)c(-c2cccs2)c1 [Compound 6, [3-({4-[(5-phenylpentyl)oxy]-3-(2-thienyl)benzyl}amino)propyl]phosphonic acid] | induced |

Same assay, conditions: mice, 10 mg/Kg subcutaneously, after 24 hours, FIG. 1

| Compound | lymphocyte count (number of lymphocytes) |
| --- | --- |
| O=P(O)(O)CCCNCc1ccc(OCCCCCc2ccccc2)c(-c2cccs2)c1 [Compound 6, [3-({4-[(5-phenylpentyl)oxy]-3-(2-thienyl)benzyl}amino)propyl]phosphonic acid] | < 1 10^3/μL blood |
